From patent US20250276069A1, “HETEROBIFUNCTIONAL COMPOSITIONS FOR TARGETED PROTEIN DEGRADATION AND METHODS FOR THEIR USE” (THE SCRIPPS RESEARCH INSTITUTE, priority 2021, published 2025)
“Also recorded” adds a separate entry of the source.

Test system: HCC1806 cells
Test: TMT MS quantitative proteomics of live cells treated with FragTAC probes (HCC1806)
Format: cell-based, Homo Sapiens
Details: TMT proteomics, targets with 2 unique peptides or more and depleted 2-fold or more relative to DMSO control (P value <0.05)
Experimental: Mammalian cell culture: MDA-MB-231 cells (ATCC) were maintained in DMEM supplemented with 10% (v/v) fetal bovine serum (FBS), 1% (v/v) penicillin/streptomycin, and 2 mM glutamine. HCC1806 cells (ATCC) were maintained in RPMI supplemented with 10% (v/v) fetal bovine serum (FBS), 1% (v/v) penicillin/streptomycin, and 2 mM glutamine. All cell lines were grown at 37° C. in a humidified 5% CO2 atmosphere.
Treatment of Live Cells with FragTAC Probes: Separate 6 cm (for gel-based analyses) or 10 cm (for MS-based analyses) dishes of MDA-MB-231 cells or HCC1806 cells were grown to 80-95% confluency with DMEM media and RPMI media respectively. The growth medium was aspirated, and the cells were washed with Dulbecco's phosphate buffered saline (DPBS). The cells were incubated with serum-free media containing fragment probes (200 μM) or control probes (200 μM) for 6 hours at 37° C. under a 5% CO2 atmosphere. The cultures were scraped, washed with cold DPBS, and collected into 15 mL centrifuge tubes, then transferred to 1.5 mL Eppendorf tubes. The cell suspensions were centrifuged (1,400 g, 3 min) and the pellets were stored at −80° C. until the next stage of processing.
Sample preparation for TMT MS Quantitative Proteomics: For treatment of cell lysates, cells were collected, cell pellets were resuspended in 100 μL DPBS containing 1× Halt protease inhibitor cocktail, and lysed by sonication (15 ms on, 40 ms off, 15% amplitude, 1 s total). Protein concentrations were normalized (2 mg/mL in 100 μL with cold DPBS) using the Lowry Protein Assay (Pierce). Urea (48 mg) was weighed for each sample in 2 mL LoBind Eppendorf tubes and cell lysates (100 μL=200 μg) were added (final urea concentration=8 M). Pellets were resuspended in a freshly prepared 1:1 solution (50 μL) TCEP (200 mM in DPBS) and K2CO3 (600 mM in DPBS) and incubated (30 min, 37° C.) while shaking. After reaction, a solution of freshly prepared iodoacetamide (70 μL, 400 mM in DPBS) was added and incubated for 30 min at room temperature while protected from light. After reaction, 1.8 mL of cold 3:1:2 MeOH/CHCl3/H2O solution was added to each tube, and the samples were centrifuged (10,000×g, 10 min, 4° C.), forming a disc. The supernatant was carefully removed, MeOH (600 μL) was added, samples were centrifuged as previously described and the supernatant was removed. Cell pellets were resuspended in TEAB (160 μL, 100 mM, pH 8.5) and sonicated as described previously. Endoproteinase LysC (20 μL, ½ vial, 10 μg dissolved in 220 μL of 100 mM TEAB pH 8.5) was added to each and incubated at 37° C. for 2 h with shaking. Sequencing-grade modified porcine trypsin (20 μL, 1 vial, 20 μg dissolved in 220 μL of 100 mM TEAB pH 8.5), a solution of Protease Max (2 μL, 1% (w/v) in 100 mM TEAB pH 8.5) and a solution of CaCl2) (2 μL, 100 mM) were added to the samples and incubated at 37° C. overnight (14 h) with shaking. The digest was separated by centrifugation (12,000×g, 10 min, 4° C.). Peptide concentration was determined using Pierce Quantitative Fluorometric Peptide Assay Kit (Thermo Fisher Scientific, 23290) according to manufacturer's instructions. MS-grade acetonitrile (12.5 μL) was added to each and samples were labeled with respective TMT 10 plex isotope (8 μL, 20 μg/μL) for 1 h with occasional vortexing at RT. To quench, hydroxylamine (3 μL, 5% v/v) was added to each sample, vortexed, and incubated for 15 min at RT. Formic acid (5 μL) was added to each tube to acidify and the samples were dried under vacuum centrifugation. The samples were combined by redissolving the contents of one tube in a solution of trifluoroacetic acid (TFA, 400 μL, 0.1% in water) and transferred into each sample until all samples were redissolved. The stepwise process was repeated with formic acid (Buffer A, 200 μL, 0.1% in water) for a final volume of 600 μL. […]

Row | SMILES | Downregulated proteins targeted by FragTAC probes (protein listed for the probe code) (cell line not given) | Proteins targeted (downregulated) by FragTAC probe (value = downregulated protein)
1 | Cc1ncsc1-c1ccc(CNC(=O)[C@@H]2C[C@@H](O)CN2C(=O)[C@@H](NC(=O)CCOCCOCCC(=O)NCCc2ccc3c(c2)NC(=O)CCC3)C(C)(C)C)cc1 [LPC034, (2S,4R)-1-((S)-2-(tert-butyl)-4,13-dioxo-16-(2-oxo-2,3,4,5-tetrahydro-1H-benzo[b]azepin-8-yl)-7,10-dioxa-3,14-diazahexadecanoyl)-4-hydroxy-N-(4-(4-methylthiazol-5-yl)benzyl)pyrrolidine-2-carboxamide] | KRT10 and KRT2 | 
2 | Cc1ncsc1-c1ccc(CNC(=O)[C@@H]2C[C@@H](O)CN2C(=O)[C@@H](NC(=O)CCOCCOCCC(=O)N[C@H]2CCCc3ccccc32)C(C)(C)C)cc1 [LPC049, (2S,4R)-1-((S)-3,3-dimethyl-2-(3-(2-(3-oxo-3-(((S)-1,2,3,4-tetrahydronaphthalen-1-yl)amino)propoxy)ethoxy)propanamido)butanoyl)-4-hydroxy-N-(4-(4-methylthiazol-5-yl)benzyl)pyrrolidine-2-carboxamide] |  | TMBIM6; also recorded: TOR4A
